Reference: ChEMBL document CHEMBL1201862, “PubChem BioAssay data set” (2004)
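Briefly, cells in 96-well plates were exposed to five compound concentrations for 48 h, and endpoints were estimated by linear interpolation. GI50 is the concentration that inhibits growth by half.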 The source made the active and inactive calls. No stated cut-off is given here; in the data, active = GI50 up to about 1.1 µM and inactive = higher.

Legend:
Assay in all cases: inhibition of tumour cell growth, NCI panel, 48 h
LOX IMVI = system: LOX IMVI
DU-145 = system: DU-145
CCRF-CEM = system: CCRF-CEM
HCT-15 = system: HCT-15
A549 = system: A549
HCC 2998 = system: HCC 2998
ACHN = system: ACHN
SN12C = system: SN12C
SK-OV-3 = system: SK-OV-3
MDA-MB-231 = system: MDA-MB-231
NCI-H460 = system: NCI-H460
SK-MEL-28 = system: SK-MEL-28
SNB-75 = system: SNB-75
M14 = system: M14
U-251 = system: U-251
SK-MEL-5 = system: SK-MEL-5
CAKI-1 = system: CAKI-1
OVCAR-4 = system: OVCAR-4
Malme-3M = system: Malme-3M
RXF 393 = system: RXF 393

SMILES	GI50 (LOX IMVI)	GI50 (DU-145)	GI50 (CCRF-CEM)	GI50 (HCT-15)	GI50 (A549)	GI50 (HCC 2998)	GI50 (ACHN)	GI50 (SN12C)	GI50 (SK-OV-3)	GI50 (MDA-MB-231)	GI50 (NCI-H460)	GI50 (SK-MEL-28)	GI50 (SNB-75)	GI50 (M14)	GI50 (U-251)	GI50 (SK-MEL-5)	GI50 (CAKI-1)	GI50 (OVCAR-4)	GI50 (Malme-3M)	GI50 (RXF 393)
COC(=NC(C)C)NC(C)C	> 100 µM (inactive)	> 100 µM (inactive)	> 100 µM (inactive)	> 100 µM	> 100 µM (inactive)	> 100 µM (inactive)	> 100 µM (inactive)	> 100 µM (inactive)	> 100 µM (inactive)	> 100 µM (inactive)	> 100 µM (inactive)	> 100 µM (inactive)	> 100 µM (inactive)	> 100 µM (inactive)	> 100 µM (inactive)	> 100 µM (inactive)	–	–	–	–
CC(C)(CC(=O)Nc1ccccc1)C(=O)O	> 100 µM (inactive)	> 100 µM (inactive)	> 100 µM (inactive)	> 100 µM	> 100 µM (inactive)	–	> 100 µM (inactive)	> 100 µM (inactive)	> 100 µM (inactive)	> 100 µM (inactive)	> 100 µM (inactive)	> 100 µM (inactive)	–	> 100 µM (inactive)	> 100 µM (inactive)	> 100 µM (inactive)	> 100 µM (inactive)	> 100 µM (inactive)	–	–
CC(C)=CC1(C)/C(=N\O)C(C)(CC(C)C)C(=O)N1O (stereo not drawn)	> 100 µM (inactive)	–	> 100 µM (inactive)	> 100 µM	> 100 µM (inactive)	> 100 µM (inactive)	> 100 µM (inactive)	> 100 µM (inactive)	> 100 µM (inactive)	–	> 100 µM (inactive)	> 100 µM (inactive)	> 100 µM (inactive)	> 100 µM (inactive)	> 100 µM (inactive)	> 100 µM (inactive)	> 100 µM (inactive)	> 100 µM (inactive)	> 100 µM (inactive)	> 100 µM (inactive)
O=C(c1nc2ccc(Cl)cc2[nH]c1=O)C(O)c1cccc([N+](=O)[O-])c1 (stereo not drawn)	18.5 µM (inactive)	–	5.06 µM (inactive)	> 100 µM	> 100 µM (inactive)	> 100 µM (inactive)	64.3 µM (inactive)	> 100 µM (inactive)	> 100 µM (inactive)	–	> 100 µM (inactive)	26.7 µM (inactive)	> 100 µM (inactive)	> 100 µM (inactive)	> 100 µM (inactive)	48.6 µM (inactive)	> 100 µM (inactive)	> 100 µM (inactive)	> 100 µM (inactive)	> 100 µM (inactive)
CC(=O)CC(=O)c1cc2c(=O)oc(C)cc2oc1=O	–	> 37.5 µM (inactive)	> 37.5 µM (inactive)	> 37.5 µM	> 37.5 µM (inactive)	> 37.5 µM (inactive)	> 37.5 µM (inactive)	> 37.5 µM (inactive)	> 37.5 µM (inactive)	–	> 37.5 µM (inactive)	> 37.5 µM (inactive)	2.75 µM (inactive)	> 37.5 µM (inactive)	> 37.5 µM (inactive)	> 37.5 µM (inactive)	> 37.5 µM (inactive)	> 37.5 µM (inactive)	> 37.5 µM (inactive)	> 37.5 µM (inactive)
O=C(c1ccco1)n1c2ccc(Br)cc2c2nc3ccccc3nc21	46.3 µM (inactive)	40.6 µM (inactive)	40.8 µM (inactive)	48.2 µM	–	61.1 µM (inactive)	27.4 µM (inactive)	> 100 µM (inactive)	–	–	28.6 µM (inactive)	> 100 µM (inactive)	16.6 µM (inactive)	> 100 µM (inactive)	40.8 µM (inactive)	> 100 µM (inactive)	84.9 µM (inactive)	48.1 µM (inactive)	35 µM (inactive)	52 µM (inactive)
CCOC(=O)c1c(N)sc2c1C(C(=O)OCC)CCC2 (stereo not drawn)	–	–	> 100 µM (inactive)	> 100 µM	> 100 µM (inactive)	> 100 µM (inactive)	> 100 µM (inactive)	> 100 µM (inactive)	–	> 100 µM (inactive)	> 100 µM (inactive)	> 100 µM (inactive)	> 100 µM (inactive)	> 100 µM (inactive)	> 100 µM (inactive)	98.2 µM (inactive)	–	–	> 100 µM (inactive)	> 100 µM (inactive)
CC1C(c2ccccc2)N(C)C(c2ccccc2)C(C)C1(O)c1ccccc1 (stereo not drawn)	37.2 µM (inactive)	–	> 100 µM (inactive)	84.1 µM	99.5 µM (inactive)	> 100 µM (inactive)	> 100 µM (inactive)	> 100 µM (inactive)	> 100 µM (inactive)	–	34.4 µM (inactive)	> 100 µM (inactive)	73.3 µM (inactive)	> 100 µM (inactive)	> 100 µM (inactive)	> 100 µM (inactive)	> 100 µM (inactive)	> 100 µM (inactive)	> 100 µM (inactive)	> 100 µM (inactive)
C/C=C1/CN2CCC34c5ccccc5N(C)C23C2CC1C4(C(=O)OC)C(OC(C)=O)O2 (stereo not drawn)	> 100 µM (inactive)	> 100 µM (inactive)	> 100 µM (inactive)	> 100 µM	> 100 µM (inactive)	> 100 µM (inactive)	> 100 µM (inactive)	> 100 µM (inactive)	> 100 µM (inactive)	> 100 µM (inactive)	> 100 µM (inactive)	> 100 µM (inactive)	> 100 µM (inactive)	> 100 µM (inactive)	> 100 µM (inactive)	> 100 µM (inactive)	> 100 µM (inactive)	> 100 µM (inactive)	–	–
COc1cc2c(cc1OCc1ccccc1)CNCC2	91.6 µM (inactive)	–	> 100 µM (inactive)	> 100 µM	> 100 µM (inactive)	> 100 µM (inactive)	> 100 µM (inactive)	> 100 µM (inactive)	> 100 µM (inactive)	–	> 100 µM (inactive)	> 100 µM (inactive)	> 100 µM (inactive)	> 100 µM (inactive)	> 100 µM (inactive)	> 100 µM (inactive)	> 100 µM (inactive)	> 100 µM (inactive)	> 100 µM (inactive)	> 100 µM (inactive)
N=c1c2ccccc2nc2oc3ccc(Cl)cc3n12	3.21 µM (inactive)	–	43.9 µM (inactive)	48 µM	12.9 µM (inactive)	> 100 µM (inactive)	11.5 µM (inactive)	9.46 µM (inactive)	13.1 µM (inactive)	25.6 µM (inactive)	25.8 µM (inactive)	25.2 µM (inactive)	2.75 µM (inactive)	9.4 µM (inactive)	5.38 µM (inactive)	37.8 µM (inactive)	11.9 µM (inactive)	2.77 µM (inactive)	10.8 µM (inactive)	11.9 µM (inactive)
CC12c3c4cc(Br)cc3Oc3cc(Br)cc(c31)Oc1cc(Br)cc(c12)O4	24.9 µM (inactive)	16.4 µM (inactive)	–	41.4 µM	44.8 µM (inactive)	81.5 µM (inactive)	51.9 µM (inactive)	31 µM (inactive)	> 100 µM (inactive)	17.8 µM (inactive)	63.1 µM (inactive)	30.5 µM (inactive)	15.5 µM (inactive)	35.4 µM (inactive)	62.1 µM (inactive)	27.6 µM (inactive)	–	> 100 µM (inactive)	19.9 µM (inactive)	–
COc1ccc(Cc2c(N)[nH]c(=O)[nH]c2=O)cc1	> 100 µM (inactive)	–	–	> 100 µM	> 100 µM (inactive)	> 100 µM (inactive)	> 100 µM (inactive)	> 100 µM (inactive)	> 100 µM (inactive)	> 100 µM (inactive)	> 100 µM (inactive)	> 100 µM (inactive)	> 100 µM (inactive)	> 100 µM (inactive)	> 100 µM (inactive)	> 100 µM (inactive)	> 100 µM (inactive)	> 100 µM (inactive)	> 100 µM (inactive)	> 100 µM (inactive)
CC1(C)CC(=O)C(=CNC(=S)c2ccccc2)C(=O)C1	> 100 µM (inactive)	> 100 µM (inactive)	27 µM (inactive)	> 100 µM	> 100 µM (inactive)	> 100 µM (inactive)	> 100 µM (inactive)	> 100 µM (inactive)	> 100 µM (inactive)	> 100 µM (inactive)	> 100 µM (inactive)	> 100 µM (inactive)	> 100 µM (inactive)	> 100 µM (inactive)	> 100 µM (inactive)	> 100 µM (inactive)	> 100 µM (inactive)	> 100 µM (inactive)	–	–
O=C(O)C1=Cc2cccc3cccc(c23)C1=O	> 100 µM (inactive)	–	> 100 µM (inactive)	> 100 µM	> 100 µM (inactive)	> 100 µM (inactive)	> 100 µM (inactive)	> 100 µM (inactive)	> 100 µM (inactive)	–	> 100 µM (inactive)	> 100 µM (inactive)	> 100 µM (inactive)	> 100 µM (inactive)	> 100 µM (inactive)	> 100 µM (inactive)	> 100 µM (inactive)	> 100 µM (inactive)	> 100 µM (inactive)	> 100 µM (inactive)
OCC(O)COCn1cc(Cn2ncc3c(NCc4ccccc4)ncnc32)nn1 (stereo not drawn)	> 100 µM (inactive)	> 100 µM (inactive)	> 100 µM (inactive)	> 100 µM	> 100 µM (inactive)	> 100 µM (inactive)	> 100 µM (inactive)	> 100 µM (inactive)	> 100 µM (inactive)	> 100 µM (inactive)	–	> 100 µM (inactive)	–	> 100 µM (inactive)	> 100 µM (inactive)	> 100 µM (inactive)	> 100 µM (inactive)	> 100 µM (inactive)	–	–
